Experimental data as given in ChEMBL document CHEMBL4680216, “Comparative analysis of the dual EGFR-DNA targeting and growth inhibitory properties of 6-mono-alkylamino- and 6,6-dialkylaminoquinazoline-based type II combi-molecules” (Eur J Med Chem, 2020).
The source made the active and inactive calls. No cut-off for these calls is given here.

Key:
PC-9 = assay: Growth inhibition of human PC-9 cells incubated for 5 days by SRB assay; format: functional, cell-based; details: PC-9, 120 h
[1] = molecular target: T1, Epidermal growth factor receptor (Homo sapiens, UniProt P00533); assay: Inhibition of EGFR phosphorylation in human PC-9 cells assessed as downregulation MAPK pathway at 1 to 10 uM preincubated for 2 hrs followed by EGF stimulation and measured after 30 mins by Western blot analysis; format: cell-based; details: dose 1-10 µM, time 2.5 hrs
T1 sequence (P00533 whole entry): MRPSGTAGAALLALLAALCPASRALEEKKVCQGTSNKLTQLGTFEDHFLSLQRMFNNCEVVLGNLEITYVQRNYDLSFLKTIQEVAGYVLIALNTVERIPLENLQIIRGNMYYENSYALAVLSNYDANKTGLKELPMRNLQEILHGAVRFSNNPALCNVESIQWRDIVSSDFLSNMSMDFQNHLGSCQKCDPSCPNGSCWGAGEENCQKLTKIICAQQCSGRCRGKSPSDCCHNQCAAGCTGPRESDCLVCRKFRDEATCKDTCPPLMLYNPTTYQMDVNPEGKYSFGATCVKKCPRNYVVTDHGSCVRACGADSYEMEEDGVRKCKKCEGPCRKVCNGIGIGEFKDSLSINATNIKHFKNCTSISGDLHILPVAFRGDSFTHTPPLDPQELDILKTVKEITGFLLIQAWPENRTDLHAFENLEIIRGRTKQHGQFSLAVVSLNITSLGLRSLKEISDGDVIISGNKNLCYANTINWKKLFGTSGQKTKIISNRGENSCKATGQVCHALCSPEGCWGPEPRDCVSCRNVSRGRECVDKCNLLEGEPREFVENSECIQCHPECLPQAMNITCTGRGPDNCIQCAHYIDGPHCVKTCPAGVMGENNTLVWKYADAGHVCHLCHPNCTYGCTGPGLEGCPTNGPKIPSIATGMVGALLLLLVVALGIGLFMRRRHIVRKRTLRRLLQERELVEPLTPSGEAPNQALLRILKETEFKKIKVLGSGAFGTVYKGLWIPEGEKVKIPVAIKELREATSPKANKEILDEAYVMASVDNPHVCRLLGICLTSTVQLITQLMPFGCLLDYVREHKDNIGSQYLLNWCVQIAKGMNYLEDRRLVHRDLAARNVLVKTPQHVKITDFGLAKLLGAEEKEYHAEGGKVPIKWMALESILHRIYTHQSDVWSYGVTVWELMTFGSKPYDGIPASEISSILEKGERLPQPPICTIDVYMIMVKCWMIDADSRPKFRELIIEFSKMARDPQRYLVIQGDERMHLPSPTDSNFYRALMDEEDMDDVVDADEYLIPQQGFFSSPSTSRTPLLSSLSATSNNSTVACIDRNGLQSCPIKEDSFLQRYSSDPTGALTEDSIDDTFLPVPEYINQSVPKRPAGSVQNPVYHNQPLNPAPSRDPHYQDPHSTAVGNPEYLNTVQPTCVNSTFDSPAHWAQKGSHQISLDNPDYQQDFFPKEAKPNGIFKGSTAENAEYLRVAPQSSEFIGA

Calf thymus DNA [2] = assay: Binding affinity to calf thymus DNA assessed as compound hydrolysis at 10 mM after 5 days by LC-MS/MS analysis; format: nucleic-acid assay; details: Bos taurus, time 5.0 day
Calf thymus DNA [3] = assay: Binding affinity to calf thymus DNA assessed as adenine alkylated adduct formation at 10 mM after 5 days by LC-MS/MS analysis; format: nucleic-acid assay; details: Bos taurus, time 5.0 day
NCI-H1975 [4] = assay: Growth inhibition of human NCI-H1975 cells incubated for 5 days by SRB assay; format: functional, cell-based; details: NCI-H1975, 120 h
[5] = molecular target: T1, Epidermal growth factor receptor; assay: Inhibition of EGFR phosphorylation in human PC-9 cells assessed as downregulation AKT pathway at 1 to 10 uM preincubated for 2 hrs followed by EGF stimulation and measured after 30 mins by Western blot analysis; format: cell-based; details: dose 1-10 µM, time 2.5 hrs
[6] = molecular target: T1, Epidermal growth factor receptor; assay: Inhibition of EGFR (unknown origin) using poly (Glu,Tyr) 4:1 as substrate incubated for 8 mins in presence of ATP by colorimetric analysis
[7] = molecular target: T1, Epidermal growth factor receptor; assay: Inhibition of EGFR phosphorylation in human PC-9 cells at 1 to 10 uM preincubated for 2 hrs followed by EGF stimulation and measured after 30 mins by Western blot analysis; format: cell-based; details: dose 1-10 µM, time 2.5 hrs
[8] = molecular target: T1, Epidermal growth factor receptor; assay: Inhibition of EGFR phosphorylation in human A549 cells at 1 to 10 uM preincubated for 2 hrs followed by EGF stimulation and measured after 30 mins by Western blot analysis; format: cell-based; details: dose 1-10 µM, time 2.5 hrs
[9] = molecular target: T1, Epidermal growth factor receptor; assay: Irreversible inhibition of EGFR in human A549 cells at 2 uM preincubated for 2 hrs followed by compound wash out with serum free media followed by EGF stimulation and measured after 30 mins by Western blot analysis; format: cell-based; details: time 2.5 hrs
[10] = molecular target: T1, Epidermal growth factor receptor; assay: Inhibition of EGFR phosphorylation in human NCI-H1975 cells assessed as downregulation MAPK pathway at 1 to 10 uM preincubated for 2 hrs followed by EGF stimulation and measured after 30 mins by Western blot analysis; format: cell-based; details: dose 1-10 µM, time 2.5 hrs
[11] = Toxicity in po dosed CD-1 mouse assessed as maximum tolerated dose; format: organism-based; details: in vivo
Calf thymus DNA [12] = assay: Binding affinity to calf thymus DNA assessed as guanine alkylated adduct formation at 10 mM after 5 days by LC-MS/MS analysis; format: nucleic-acid assay; details: Bos taurus, time 5.0 day
[13] = molecular target: T1, Epidermal growth factor receptor; assay: Inhibition of EGFR phosphorylation in human NCI-H1975 cells at 1 to 10 uM preincubated for 2 hrs followed by EGF stimulation and measured after 30 mins by Western blot analysis; format: cell-based; details: dose 1-10 µM, time 2.5 hrs
A549 [14] = assay: Induction of DNA damage in human A549 cells at 0.1 to 10 uM after 2 hrs by comet assay; format: functional, cell-based; details: dose 0.1-10 µM
[15] = molecular target: T1, Epidermal growth factor receptor; assay: Inhibition of EGFR phosphorylation in human NCI-H1975 cells assessed as downregulation AKT pathway at 1 to 10 uM preincubated for 2 hrs followed by EGF stimulation and measured after 30 mins by Western blot analysis; format: cell-based; details: dose 1-10 µM, time 2.5 hrs
[16] = molecular target: T1, Epidermal growth factor receptor; assay: Inhibition of EGFR phosphorylation in human A549 cells assessed as downregulation AKT pathway at 1 to 10 uM preincubated for 2 hrs followed by EGF stimulation and measured after 30 mins by Western blot analysis; format: cell-based; details: dose 1-10 µM, time 2.5 hrs
[17] = molecular target: T1, Epidermal growth factor receptor; assay: Inhibition of EGFR phosphorylation in human A549 cells assessed as downregulation MAPK pathway at 1 to 10 uM preincubated for 2 hrs followed by EGF stimulation and measured after 30 mins by Western blot analysis; format: cell-based; details: dose 1-10 µM, time 2.5 hrs
A549 [18] = assay: Growth inhibition of human A549 cells incubated for 5 days by SRB assay; format: functional, cell-based; details: A549, 120 h
A549 [19] = assay: Potency index, ratio of gefitinib IC50 in presence of chlorambucil to test compound IC50 for growth inhibition of human A549 cells; format: functional
A549 [20] = assay: Potency index, ratio of gefitinib IC50 to test compound IC50 for growth inhibition of human A549 cells; format: functional
NCI-H1975 [21] = assay: Potency index, ratio of gefitinib IC50 to test compound IC50 for growth inhibition of human NCI-H1975 cells; format: functional
NCI-H1975 [22] = assay: Potency index, ratio of gefitinib IC50 in presence of chlorambucil to test compound IC50 for growth inhibition of human NCI-H1975 cells; format: functional

Row | Structure (SMILES) | IC50 (PC-9) | inhibition [1] | Activity (Calf thymus DNA [2]) | Activity (Calf thymus DNA [3]) | IC50 (NCI-H1975 [4]) | inhibition [5] | inhibition [7] | inhibition [8] | inhibition [9] | MTD [11] | Activity (Calf thymus DNA [12]) | Activity (A549 [14]) | inhibition [16] | inhibition [17] | IC50 (A549 [18]) | further results
1 | ClCCN(CCCl)c1ccc2ncnc(Nc3cccc(Br)c3)c2c1 | 0.203 µM | Active | Active | Active | 6.07 µM | Active | Active | Active | Active | 150 mg/kg | Active | Active | Active | Active | 6.51 µM | IC50 [6]: 1.26 µM; inhibition [10]: Active; inhibition [13]: Active; inhibition [15]: Active
2 | OCCN(CCO)c1ccc2ncnc(Nc3cccc(Br)c3)c2c1 | 0.07 µM | – | – | – | 18.1 µM | – | – | – | – | – | – | – | – | – | 46.6 µM | –
3 | CN(CCCl)c1ccc2ncnc(Nc3cccc(Br)c3)c2c1 | 0.21 µM | Active | Active | Active | 2.81 µM | Active | Active | Active | inactive | 150 mg/kg | Active | Active | Active | Active | 3.16 µM | Ratio IC50 (A549 [19]): 2; Ratio IC50 (A549 [20]): 2; IC50 [6]: 0.504 µM; Ratio IC50 (NCI-H1975 [21]): 2; Ratio IC50 (NCI-H1975 [22]): 2
4 | CN(CCO)c1ccc2ncnc(Nc3cccc(Br)c3)c2c1 | 0.103 µM | – | – | – | 11.3 µM | – | – | – | – | – | – | – | – | – | 34.5 µM | –
5 | CC(=O)OCCN(CCO)c1ccc2ncnc(Nc3cccc(Br)c3)c2c1 | 0.086 µM | – | – | – | 16 µM | – | – | – | – | – | – | – | – | – | 48 µM | –
6 | CC(=O)OCCN(C)c1ccc2ncnc(Nc3cccc(Br)c3)c2c1 | 0.098 µM | – | – | – | 9.4 µM | – | – | – | – | – | – | – | – | – | 30.5 µM | –
7 | CC(=O)OCCN(CCOC(C)=O)c1ccc2ncnc(Nc3cccc(Br)c3)c2c1 | 0.13 µM | – | – | – | 20.2 µM | – | – | – | – | – | – | – | – | – | 52.6 µM | –
8 | COc1cc2ncnc(Nc3ccc(F)c(Cl)c3)c2cc1OCCCN1CCOCC1 | – | – | – | – | – | – | – | – | – | – | – | inactive | – | – | – | –
9 | ClCCNc1ccc2ncnc(Nc3cccc(Br)c3)c2c1 | 0.09 µM | Active | Active | Active | 0.48 µM | Active | Active | Active | Active | 150 mg/kg | Active | Active | Active | Active | 2.06 µM | –
10 | O=C(O)CCCc1ccc(N(CCCl)CCCl)cc1 [CHLORAMBUCIL] | 7.17 µM | – | – | – | 28.2 µM | – | inactive | inactive | – | – | – | inactive | – | – | 24.5 µM | inhibition [13]: inactive
